Test results from patent US9656988B2 (Pharmacyclics LLC, priority 2013, dated 2017).
Like-named read-outs stand apart in the source and are kept apart here.

Target: BTK (Homo sapiens (Human), UniProt Q06187)
Assay: Btk in vitro inhibitory activity (one of Method A TR-FRET, Method B electrophoretic mobility shift, Method C radiometric filter binding)
Format: biochemical
[1] = determined using one of the methods of Example 355a, 355b and 355c, read-out: BTK IC50

Sequence of BTK (Q06187 whole entry): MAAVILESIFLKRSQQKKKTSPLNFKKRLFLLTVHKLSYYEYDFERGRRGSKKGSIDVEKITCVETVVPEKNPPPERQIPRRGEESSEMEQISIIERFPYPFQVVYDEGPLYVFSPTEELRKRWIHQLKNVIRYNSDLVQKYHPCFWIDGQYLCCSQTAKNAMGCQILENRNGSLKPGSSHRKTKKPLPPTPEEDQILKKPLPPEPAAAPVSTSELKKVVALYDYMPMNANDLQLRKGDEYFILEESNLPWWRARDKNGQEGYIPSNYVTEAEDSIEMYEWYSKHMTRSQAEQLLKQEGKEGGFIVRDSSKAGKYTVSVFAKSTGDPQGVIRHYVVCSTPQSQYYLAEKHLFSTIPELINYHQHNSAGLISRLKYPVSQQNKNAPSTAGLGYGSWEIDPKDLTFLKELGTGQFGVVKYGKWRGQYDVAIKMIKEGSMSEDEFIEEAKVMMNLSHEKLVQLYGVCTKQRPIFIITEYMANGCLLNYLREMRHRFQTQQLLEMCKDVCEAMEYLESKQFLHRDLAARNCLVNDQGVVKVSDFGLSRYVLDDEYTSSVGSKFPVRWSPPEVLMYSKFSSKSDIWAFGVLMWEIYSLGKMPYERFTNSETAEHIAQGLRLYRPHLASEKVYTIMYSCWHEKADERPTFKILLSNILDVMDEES

Compound	IC50 [1]	IC50 (read-out: Btk (IC50))	IC50	IC50 (Btk (IC50))
NC(=O)c1ncc(N2CCC[C@@H](NC(=O)NC3CCOCC3)C2)nc1NC1CCOCC1 [Example 354, (R)-5-(3-(3-(tetrahydro-2H-pyran-4-yl)ureido)piperidin-1-yl)-3-(tetrahydro-2H-pyran-4-ylamino)pyrazine-2-carboxamide]	1000 to 10000 nM	–	–	–
COc1ccc(C(=O)N[C@@H]2CCCN(c3cnc(C(N)=O)c(Nc4ccc(C(C)C)cc4)n3)C2)cc1 [Example 160, (R)-3-(4-isopropylphenylamino)-5-(3-(4-methoxybenzamido)piperidin-1-yl)pyrazine-2-carboxamide]	10 to 100 nM	–	–	–
CN(C)C(=O)N[C@@H]1CCCN(c2cnc(C(N)=O)c(Nc3ccc(C4CCN(C(=O)N(C)C)CC4)cc3)n2)C1 [Example 170, (R)-3-(4-(1-(dimethylcarbamoyl)piperidin-4-yl)phenylamino)-5-(3-(3,3-dimethylureido)piperidin-1-yl)pyrazine-2-carboxamide]	< 10 nM	< 10 nM	–	–
NC(=O)c1nnc(N2CCC[C@@H](NC(=O)N3CCOCC3)C2)nc1Nc1ccc(C(=O)N2CCOCC2)cc1 [Example 38, (R)—N-(1-(6-carbamoyl-5-(4-(morpholine-4-carbonyl)phenylamino)-1,2,4-triazin-3-yl)piperidin-3-yl)morpholine-4-carboxamide]	10 to 100 nM	–	–	–
COc1ccc(C(=O)N[C@@H]2CCCN(c3cnc(C(N)=O)c(Nc4ccc(N5CCOCC5)nc4)n3)C2)cc1 [Example 124, (R)-5-(3-(4-methoxybenzamido)piperidin-1-yl)-3-(6-morpholinopyridin-3-ylamino)pyrazine-2-carboxamide]	< 10 nM	–	10 to 100 nM	–
NC(=O)c1nnc(N2CCC[C@@H](NC(=O)c3ccncc3)C2)nc1Nc1ccc(C(=O)N2CCOCC2)cc1 [Example 14, (R)-3-(3-(isonicotinamido)piperidin-1-yl)-5-(4-(morpholine-4-carbonyl)phenylamino)-1,2,4-triazine-6-carboxamide]	< 10 nM	–	–	–
CN(C)C(=O)N1CCC(c2ccc(Nc3nc(N4CCC[C@@H](N(C)C(=O)N(C)C)C4)cnc3C(N)=O)cc2)CC1 [Example 226, (R)-3-(4-(1-(dimethylcarbamoyl)piperidin-4-yl)phenylamino)-5-(3-(1,3,3-trimethylureido)piperidin-1-yl)pyrazine-2-carboxamide]	10 to 100 nM	–	–	10 to 100 nM
CN(C)C(=O)N[C@@H]1CCCCN(c2cnc(C(N)=O)c(Nc3ccc(C4CCN(C5CCCC5)CC4)cc3)n2)C1 [Example 327, (R)-3-(4-(1-cyclopentylpiperidin-4-yl)phenylamino)-5-(3-(3,3-dimethylureido)azepan-1-yl)pyrazine-2-carboxamide]	< 10 nM	< 10 nM	–	–
CN1CCN([C@@H]2CCCN(c3cnc(C(N)=O)c(Nc4ccc(C5(C#N)CCN(C6CCC6)CC5)cc4)n3)C2)C1=O [Example 273, (R)-3-(4-(4-cyano-1-cyclobutylpiperidin-4-yl)phenylamino)-5-(3-(3-methyl-2-oxoimidazolidin-1-yl)piperidin-1-yl)pyrazine-2-carboxamide]	< 10 nM	< 10 nM	–	–
NC(=O)c1nnc(N2CCC[C@@H](NC(=O)c3ccc(F)cc3)C2)nc1Nc1ccc(C(=O)N2CCOCC2)cc1 [Example 9, (R)-3-(3-(4-fluorobenzamido)piperidin-1-yl)-5-(4-(morpholine-4-carbonyl)phenylamino)-1,2,4-triazine-6-carboxamide]	< 10 nM	–	–	–
CN(C(=O)N[C@@H]1CCCN(c2nnc(C(N)=O)c(Nc3ccc(C(=O)N4CCOCC4)cc3)n2)C1)c1ccccc1 [Example 39, (R)-3-(3-(3-methyl-3-phenylureido)piperidin-1-yl)-5-(4-(morpholine-4-carbonyl)phenylamino)-1,2,4-triazine-6-carboxamide]	10 to 100 nM	–	–	–
CN(C)C(=O)N[C@@H]1CCCN(c2cnc(C(N)=O)c(Nc3ccc(F)cc3)n2)C1 [Example 179, (R)-5-(3-(3,3-dimethylureido)piperidin-1-yl)-3-(4-fluorophenylamino)pyrazine-2-carboxamide]	10 to 100 nM	10 to 100 nM	–	–
CCOc1ccc(C(=O)N[C@@H]2CCCN(c3nnc(C(N)=O)c(Nc4ccc(C5=NCCN5C)cc4)n3)C2)cc1 [Example 344, (R)-3-(3-(4-ethoxybenzamido)piperidin-1-yl)-5-(4-(1-methyl-4,5-dihydro-1H-imidazol-2-yl)phenylamino)-1,2,4-triazine-6-carboxamide]	10 to 100 nM	–	–	–
NC(=O)c1nnc(N2CCC[C@@H](NC(=O)N3CCCCC3)C2)nc1Nc1ccc(C2CCNCC2)cc1 [Example 335, (R)-5-(4-(piperidin-4-yl)phenylamino)-3-(3-(piperidine-1-carboxamido)piperidin-1-yl)-1,2,4-triazine-6-carboxamide]	< 10 nM	–	–	–
CN(C)C(=O)N[C@@H]1CCCN(c2cnc(C(N)=O)c(Nc3ccc(C4CCN(C5CCC5)CC4)cc3)n2)C1 [Example 175, (R)-3-(4-(1-cyclobutylpiperidin-4-yl)phenylamino)-5-(3-(3,3-dimethylureido)piperidin-1-yl)pyrazine-2-carboxamide]	< 10 nM	< 10 nM	–	–
CN(C)Cc1ccc(Nc2nc(N3CCC[C@@H](NC(=O)N(C)C)C3)cnc2C(N)=O)cc1 [Example 193, (R)-3-(4-((dimethylamino)methyl)phenylamino)-5-(3-(3,3-dimethylureido)piperidin-1-yl)pyrazine-2-carboxamide]	10 to 100 nM	–	–	10 to 100 nM
COc1ccc(C(=O)N[C@@H]2CCCN(c3cnc(C(N)=O)c(Nc4ccc(C5CCN(C6CCCC6)CC5)cc4)n3)C2)cc1 [Example 135, (R)-3-(4-(1-cyclopentylpiperidin-4-yl)phenylamino)-5-(3-(4-methoxybenzamido)piperidin-1-yl)pyrazine-2-carboxamide]	< 10 nM	< 10 nM	–	–
C[C@@H]1[C@H](NC(=O)N(C)C)CCCN1c1cnc(C(N)=O)c(Nc2ccc(C3(C(F)(F)F)CC3)cc2)n1 [Example 239, 5-((2R,3R)-3-(3,3-dimethylureido)-2-methylpiperidin-1-yl)-3-(4-(1-(trifluoromethyl)cyclopropyl)phenylamino)pyrazine-2-carboxamide]	< 10 nM	< 10 nM	–	–
CN(C)C(=O)N[C@@H]1CCCN(c2cnc(C(N)=O)c(Nc3ccn(C)c(=O)c3)n2)C1 [Example 185, (R)-5-(3-(3,3-dimethylureido)piperidin-1-yl)-3-(1-methyl-2-oxo-1,2-dihydropyridin-4-ylamino)pyrazine-2-carboxamide]	100 to 1000 nM	–	–	100 to 1000 nM
CCC(=O)N1CCC[C@@H](Nc2nnc(C(N)=O)c(Nc3ccc(C(=O)N4CCOCC4)cc3)n2)C1 [Example 63, (R)-5-(4-(morpholine-4-carbonyl)phenylamino)-3-(1-propionylpiperidin-3-ylamino)-1,2,4-triazine-6-carboxamide]	< 10 nM	–	–	–
C=CC(=O)N1CCC[C@@H](N(C)c2cnc(C(N)=O)c(Nc3ccc(C(=O)N4CCOCC4)cc3)n2)C1 [Example 74, (R)-5-((1-acryloylpiperidin-3-yl)(methyl)amino)-3-(4-(morpholine-4-carbonyl)phenylamino)pyrazine-2-carboxamide]	< 10 nM	< 10 nM	–	–
COc1ccc(C(=O)N[C@@H]2CCCN(c3cnc(C(N)=O)c(Nc4cc(C)ns4)n3)C2)cc1 [Example 119, (R)-5-(3-(4-methoxybenzamido)piperidin-1-yl)-3-(3-methylisothiazol-5-ylamino)pyrazine-2-carboxamide]	10 to 100 nM	–	–	–
NC(=O)c1nnc(N2CCC[C@@H](NC(=O)c3ccc(C(F)(F)F)cc3)C2)nc1Nc1ccc(C(=O)N2CCOCC2)cc1 [Example 6, (R)-5-(4-(morpholine-4-carbonyl)phenylamino)-3-(3-(4-(trifluoromethyl)benzamido)piperidin-1-yl)-1,2,4-triazine-6-carboxamide]	< 10 nM	–	–	–
CCC(=O)N1CCC(C)(c2ccc(Nc3nc(N4CCC[C@@H](NC(=O)N(C)C)C4)cnc3C(N)=O)cc2)CC1 [Example 224]	< 10 nM	–	–	–
CC(=O)N1CCC(c2ccc(Nc3nc(N4CCC[C@@H](NC(=O)N5CCCCC5)C4)nnc3C(N)=O)cc2)CC1 [Example 338, (R)-5-(4-(1-acetylpiperidin-4-yl)phenylamino)-3-(3-(piperidine-1-carboxamido)piperidin-1-yl)-1,2,4-triazine-6-carboxamide]	< 10 nM	< 10 nM	–	–
NC(=O)c1ncc(N2CCC[C@@H](NC(=O)c3ccc(-c4ccccc4)cc3)C2)nc1Nc1ccc(C2CCN(C3CC3)CC2)cc1 [Example 318, (R)-5-(3-biphenyl-4-ylcarboxamidopiperidin-1-yl)-3-(4-(1-cyclopropylpiperidin-4-yl)phenylamino)pyrazine-2-carboxamide]	10 to 100 nM	–	–	–
NC(=O)c1nnc(N2CCC[C@@H](Oc3nccc4ccccc34)C2)nc1Nc1ccc(C(=O)N2CCOCC2)cc1 [Example 45, (R)-3-(3-(isoquinolin-1-yloxy)piperidin-1-yl)-5-(4-(morpholine-4-carbonyl)phenylamino)-1,2,4-triazine-6-carboxamide]	100 to 1000 nM	–	–	–
NC(=O)c1nnc(N2CCC[C@@H](NS(=O)(=O)c3ccccc3)C2)nc1Nc1ccc(C(=O)N2CCOCC2)cc1 [Example 41, (R)-5-(4-(morpholine-4-carbonyl)phenylamino)-3-(3-(phenylsulfonamido)piperidin-1-yl)-1,2,4-triazine-6-carboxamide]	< 10 nM	–	–	–
NC(=O)c1ncc(N2CCC[C@@H](NC(=O)C3CCCC3)C2)nc1Nc1ccc(C2CCN(C3CC3)CC2)cc1 [Example 310, (R)-5-(3-(cyclopentanecarboxamido)piperidin-1-yl)-3-(4-(1-cyclopropylpiperidin-4-yl)phenylamino)pyrazine-2-carboxamide]	10 to 100 nM	10 to 100 nM	–	–
Cc1ncc(C(=O)N[C@@H]2CCCN(c3nnc(C(N)=O)c(Nc4ccc(C(=O)N5CCOCC5)cc4)n3)C2)s1 [Example 93, (R)—N-(1-(6-carbamoyl-5-(4-(morpholine-4-carbonyl)phenylamino)-1,2,4-triazin-3-yl)piperidin-3-yl)-2-methylthiazole-5-carboxamide]	–	< 10 nM	–	–
